Results as given in patent EP4635952A1, “SOLID FORM OF N-SUBSTITUTED PHENYLSULFONAMIDE COMPOUND” (Shanghai Leado Pharmatech Co. Ltd., priority 2022, dated 2024).
Where a name gives a salt, the structure may show the parent alone. Read-outs that look alike come from different tables or passages of the source.

Columns and labels:
Format in all cases: physicochemical
[1] = Solid-state stability (HPLC purity and XRPD crystal form on storage); details: for Purity (area %) / Initial purity (area %): HPLC; for Initial purity (area %): starting sample before storage
Procedure: About 10 mg of each solid form of the compound was weighed and added to the HPLC vial, respectively, the bottleneck was sealed with a sealing film, and 10 small holes were made on the film. The vial was placed in 25° C/60% RH and 40° C/75% RH environment for 4 weeks, samples were taken in the 1st week, the 2rd week and the 4th week respectively, the purity (by HPLC analysis) and crystal form (by X ray powder diffraction analysis) of the sample were investigated. […]

[2] = Approximate solubility in purified water
Procedure: To determine the approximate solubility, the corresponding solid form sample was added to a 3 mL glass vial. Purified water was incrementally introduced (50, 50, 200, and 700 µL) while vortexing and ultrasonically agitating to facilitate dissolution. […] Solvent addition was halted either when full dissolution was achieved or when the total water volume reached 1 mL. The approximate solubility was then calculated based on the final solvent volume used.

[3] = Dynamic solubility in biorelevant media SGF, FaSSIF or water; details: 37°C, dosed at 10 mg/mL, 1-24 hours, Figure 31
Procedure: The dynamic solubility of fumarate crystal form B, hydrochloride crystal form C, sulfate crystal form D, succinate crystal form E, malate crystal form F, and free crystal form A was assessed at 37°C in biorelevant media SGF, FaSSIF or water. All samples were dosed at 10 mg/mL in each solvent. The samples were sealed and mounted on a rotating disk rotating at 25 rpm, and the rotating disk was placed in a 37° C. incubator. Samples were taken at time points 1, 2, 4, and 24 hours of equilibration, and the filtrate was separated and tested concentration by HPLC and pH, while isolated solids were characterized by XRPD.

[4] = Hygroscopicity by dynamic moisture absorption (DVS); details: 25°C/80% RH; for moisture adsorption: DVS, 0% RH-95% RH adsorption curve; for hygroscopicity classification: criteria of 2015 edition of the Chinese Pharmacopoeia (Guidelines for Drug Hygroscopicity Test)
Procedure: Dynamic moisture adsorption (DVS) analysis: the instrument is a DVS Intrinsic produced by SMS company (Surface Measurement Systems); temperature, 25° C.; carrier gas, flow rate: nitrogen, 200 mL/min; mass change per unit time: 0.002%/min; relative humidity range: 0%RH-95%RH.
Dynamic moisture absorption (DVS) was used to test their hygroscopicity.

[5] = 25°C/60% RH and 40°C/75% RH, 4 weeks

Compound	Purity (area %) ([1]; 25°C /60%RH/open, 1 week)	Purity (area %) ([1]; 25°C /60%RH/open, 2 weeks)	Purity (area %) ([1]; 25°C /60%RH/open, 4 weeks)	Purity (area %) ([1]; 40°C /75%RH/open, 1 week)	Purity (area %) ([1]; 40°C /75%RH/open, 2 weeks)	Purity (area %) ([1]; 40°C /75%RH/open, 4 weeks)	Initial purity (area %) [1] [area %]	Solubility [2]	HPLC purity [1, 5]	crystal form (XRPD) before and after placement [1, 5]	dynamic solubility ([3]; FaSSIF)	dynamic solubility ([3]; water)	moisture adsorption [4] [%]	hygroscopicity classification [4]	Solubility ([2]; listed as Free form crystal A)
CNCc1ccc(NS(=O)(=O)c2ccsc2)c(-c2ccco2)c1 [Malonate crystal form K, N-(2-(furan-2-yl)-4-((methylamino)methyl)phenyl) thiophene-3-sulfonamide]	98.64	98.61	98.59	98.64	98.58	98.46	98.64								
CNCc1ccc(NS(=O)(=O)c2ccsc2)c(-c2ccco2)c1 [Phosphate crystal form G, N-(2-(furan-2-yl)-4-((methylamino)methyl)phenyl)thiophene-3-sulfonamide]	98.11	98.09	98.04	98.11	98.06	98.01	98.11								
CNCc1ccc(NS(=O)(=O)c2ccsc2)c(-c2ccco2)c1 [Pyroglutamate crystal form I, N-(2-(furan-2-yl)-4-((methylamino)methyl)phenyl)thiophene-3-sulfonamide]	98.61	98.58	98.57	98.61	98.54	98.32	98.61	S>38.0 mg/mL							
CNCc1ccc(NS(=O)(=O)c2ccsc2)c(-c2ccco2)c1 [Tartrate crystal form H, N-(2-(furan-2-yl)-4-((methylamino)methyl)phenyl)thiophene-3-sulfonamide]	98.71	98.62	98.6	98.7	98.6	98.53	98.71								
CNCc1ccc(NS(=O)(=O)c2ccsc2)c(-c2ccco2)c1 [benzene sulfonate crystal form J, N-(2-(furan-2-yl)-4-((methylamino)methyl)-phenyl)thiophene-3-sulfonamide]	98.87	98.85	98.82	98.87	98.82	98.79	98.87								
CNCc1ccc(NS(=O)(=O)c2ccsc2)c(-c2ccco2)c1 [free crystal form A, N-(2-(furan-2-yl)-4-((methylamino)methyl)phenyl)thiophene-3-sulfonamide]	98.18	98.14	98.1	98.19	98.2	98.13	98.11		did not decrease significantly	no detectable crystalline phase changes	negligible dissolution	negligible dissolution	1.6	slightly hygroscopic	S<2.0 mg/mL
CNCc1ccc(NS(=O)(=O)c2ccsc2)c(-c2ccco2)c1 [fumarate crystal form B, N-(2-(furan-2-yl)-4-((methylamino)methyl)phenyl)thiophene-3-sulfonamide]	98.53	98.47	98.57	98.4	98.5	98.52	98.55						0.2	slightly hygroscopic	
CNCc1ccc(NS(=O)(=O)c2ccsc2)c(-c2ccco2)c1 [hydrochloride crystal form C, N-(2-(furan-2-yl)-4-((methylamino)methyl)phenyl)thiophene-3-sulfonamide]	98.97	98.92	98.87	99.02	98.9	99	99.02						5.5	hygroscopic	
CNCc1ccc(NS(=O)(=O)c2ccsc2)c(-c2ccco2)c1 [malate crystal form F, N-(2-(furan-2-yl)-4-((methylamino)methyl)phenyl)thiophene-3-sulfonamide]	98.72	98.7	98.79	98.74	98.75	98.68	98.72						1.4	slightly hygroscopic	
CNCc1ccc(NS(=O)(=O)c2ccsc2)c(-c2ccco2)c1 [succinate crystal form E, N-(2-(furan-2-yl)-4-((methylamino)methyl)phenyl)thiophene-3-sulfonamide]	98.92	98.86	98.94	98.92	98.72	98.98	98.82						0.6	slightly hygroscopic	
CNCc1ccc(NS(=O)(=O)c2ccsc2)c(-c2ccco2)c1 [sulfate crystal form D, N-(2-(furan-2-yl)-4-((methylamino)methyl)phenyl)thiophene-3-sulfonamide]	98.74	98.65	98.78	98.76	98.65	98.78	98.77						1.3	slightly hygroscopic	
